Entries after “also recorded” stand apart in the source; their conditions may differ.
Tests used:
[1] = tested on: C57BL/6 mice fed an MCD diet; assay: Methionine-choline deficient diet (MCD) model of NASH; format: in vivo; conditions: end of MCD study; ip bid 28 days
Procedure: Mice fed an MCD diet is a standard model of diet induced NASH.^47,48 All animals were housed in ventilated standard housing cages throughout the experimental phase. Tap water was provided ad libitum to all animals. Male, 8-week old, C57BL/6 mice from Charles River were acclimated for 3 days maintained on a standard chow diet and group housed in hepa-filtered cages (5 animals per cage) on a normal 12 hours light cycle (at 8 am to 8 pm lights off). The temperature and humidity were 22±2° C. and 50±10%, respectively. Cages litters were changed once a week. ^47 Reid D T, Reyes J L, McDonald B A, Vo T, Reimer R A, Eksteen B. Kupffer Cells Undergo Fundamental Changes during the Development of Experimental NASH and Are Critical in Initiating Liver Damage and Inflammation. PLoS One. 2016, 25; 11:e0159524.^48 Ramadori P, Weiskirchen R, Trebicka J, Streetz K. Mouse models of metabolic liver injury. Lab Anim. 2015; 49(1 Suppl):47-58.
Following acclimation, the animals were randomized into homogenous treatment groups according to their body weight, and fed ad libitum a diet deficient in methionine and choline: 4.2 kcal/g; MP Biomedicals, Solon, OH). Food and water intake were measured 3 times per week (at the same time as body weight measurements). After the acclimation period, the 24 mice (n=6/treatment group) were weighed 3 times per week until sacrifice.
The 4 treatment group were: • Group 1: Vehicle+MCD • Group 2: MCD+200 mg/kg UR • Group 3: MCD+60 mg/kg Compound I • Group 4: MCD+60 mg/kg Compound 1 plus 200 mg/kg UR 30 minutes post Compound 1
All Compound 1 and UR doses (mg/kg in 10 mL/kg of vehicle) were ip, bid at least 8 hours apart, for 28 days. Vehicle=PBS. Vehicle, UR and Compound 1±UR will be dosed daily starting 2 days prior to placing the animals on a MCD diet. Mice were on the MCD diet for 26 days.
After 26 days on MCD, the animals were sacrificed ˜2 hours after the last dose and non-fasted glucose was measured along with a plasma lipid panel, TNF-α, ALT and AST. Total body weight was determined weekly. Total liver was weighed and the medial lobe excised, formalin fixed and stained with Oil Red O to evaluate lipid content. An intensity score for the fixed tissue slides measured by an independent histopathologist was also determined.

[2] = UR, reference 46; cited from earlier work
[3] = tested on: C57BL/6 mice fed an MCD diet; assay: Methionine-choline deficient diet (MCD) model of NASH; format: in vivo; conditions: H&E liver sections, end of MCD study; ip bid 28 days; FIG. 4
[4] = Elimination t1/2 of Compound 1 in mice; conditions: mouse, in vivo
plasma UR = assay: Plasma UR concentration versus plasma Compound 1 concentration after continuous sc osmotic-pump infusion; format: in vivo; conditions: BDF-1 male mice, result in words
Procedure: For this reason continuous infusion of compound I (authentic TK-112690, Batch TCY90108) to BDF-1 ♂ mice were administered via a sc implanted osmotic pumps and the UR plasma concentration measured, ^46 Deng Y, Wang Z V, Gordillo R, An Y, Zhang C, Liang Q, Yoshino J, Cautivo K M, De Brabander J, Elrnquist J K, Horton J D, Hill J A, Klein S, Scherer P E. An adipo-biliary-uridine axis that regulates energy homeostasis. Science 2017, 17; 355(6330)
Solutions of Compound I were prepared at a concentration of 500 mg/mL in sterile PBS. Osmotic pumps (ALZET® micro-osmotic pump 2001 D and 1003D, Alza Co) were loaded with 200 μL (2001D osmotic pump) and/or 100 μL (1003D osmotic pump) of TK-112690 solution.
BDF-1 male mice (n=6) were treated with a constant-rate infusion of 667, 833 or 3000 mg/kg/day doses of Compound I delivered via subcutaneously implanted osmotic pumps. Animals were anesthetized with 100 mg/kg ketamine prior to pump implantation. Surgical scissors were used to make an approximately 1 cm incision on the dorsal surface near the shoulder blade of animals. A hemostat was used to carve out a subcutaneous tunnel toward the anterior end of animal. Osmotic pumps were placed inside the subcutaneous tunnel. […]
A solid-phase extraction (SPE) of analytes (UR, Compound I and 5-FU) from plasma was conducted before HPLC analysis. […] Samples were transferred into fresh HPLC vials and analyzed. […]

Question: With `O=c1ccn([C@@H]2O[C@H](CO)[C@@H](O)[C@H]2O)c(=O)[nH]1` [UR, uridine] as the molecule, how does the ALT [1] read?
Answer: Its ALT is “no difference”.

Question: What about the AST [1] of the same molecule?
Answer: Its AST is “no difference”.

Question: And the cholesterol [1]?
Answer: The cholesterol was “no difference”.

Question: And the total triglycerides [1]?
Answer: The total triglycerides was “no difference”.

Question: And the “elimination t1/2” value [2]?
Answer: The value was “only a few minutes”.

Question: And the “liver fibrosis scoring compared to vehicle treated controls” value [3]?
Answer: The value was “statistically different”.

Question: With `Cc1cn2c(nc1=O)O[C@H]1[C@H](O)[C@@H](CO)O[C@H]12` [Compound 1] as the molecule, how does the ALT [1] read?
Answer: The ALT was “no difference”.

Question: And the AST [1]?
Answer: Its AST is “no difference”.

Question: And the cholesterol [1]?
Answer: Its cholesterol is “no difference”.

Question: What about the total triglycerides [1] of the same molecule?
Answer: Its total triglycerides is “no difference”.

Question: What about the half-life [4] of the same molecule?
Answer: Its half-life is 1 to 2 h.

Question: What about the “liver fibrosis scoring compared to vehicle treated controls” value [3] of the same molecule?
Answer: Its value is “statistically different”.

Question: And the “effect on plasma UR level” value (plasma UR)?
Answer: Its value is “elevate plasma UR in a linear fashion; also recorded: associated with higher levels of UR”.

From US12667571B2, “Uridine phosphorylase (UPase) inhibitors for treatment of liver conditions” (Tosk, Inc., priority 2019, dated 2026)
